Reference: ChEMBL document CHEMBL1201862, “PubChem BioAssay data set” (2004)
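Values below derive from 48-hour exposures of cells grown in 96-well plates, with endpoints linearly interpolated between the two concentrations bracketing the appropriate inhibition level. The concentration for 50% growth inhibition is given as GI50.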 The source made the active and inactive calls. Rule as the data show it: active = GI50 up to about 1.1 µM and inactive = higher.

Experiments:
Assay in all cases: NCI anticancer screen, dose series, 48 h
[1] = test system: EKVX
[2] = test system: M19-MEL
[3] = test system: HT-29
[4] = test system: XF498
[5] = test system: SR
[6] = test system: SNB-78
[7] = test system: DMS-273
[8] = test system: HCT-116
[9] = test system: NCI-H460
[10] = test system: UO-31
[11] = test system: CCRF-CEM
[12] = test system: LXFL 529
[13] = test system: HCC 2998
[14] = test system: Malme-3M
[15] = test system: OVCAR-4
[16] = test system: SF-268
[17] = test system: RPMI-8226
[18] = test system: COLO 205
[19] = test system: CAKI-1
[20] = test system: RXF 393
[21] = test system: UACC-62
[22] = test system: MOLT-4
[23] = test system: UACC-257
[24] = test system: OVCAR-3
[25] = test system: SK-OV-3
[26] = test system: TK-10
[27] = test system: KM-20L2
[28] = test system: SW-620
[29] = test system: U-251
[30] = test system: K562
[31] = test system: LOX IMVI
[32] = test system: NCI-H23
[33] = test system: ACHN
[34] = test system: SK-MEL-2
[35] = test system: NCI-H522
[36] = test system: OVCAR-8
[37] = test system: OVCAR-5
[38] = test system: SNB-19
[39] = test system: SNB-75
[40] = test system: KM12
[41] = test system: M14
[42] = test system: DLD-1
[43] = test system: SK-MEL-5
[44] = test system: HOP-62
[45] = test system: SF-539
[46] = test system: HOP-92
[47] = test system: HCT-15
[48] = test system: DMS-114
[49] = test system: IGROV-1
[50] = test system: A498
[51] = test system: NCI-H226
[52] = test system: 786-0
[53] = test system: SN12C
[54] = test system: SK-MEL-28
[55] = test system: SF-295
[56] = test system: A549
[57] = test system: HL-60
[58] = test system: HOP-18

In the case of `COc1ccc2ccccc2c1CN1CCOCCOCCN(Cc2c(OC)ccc3ccccc23)CCOCCOCC1`, the GI50 [1] is reported as > 100 µM (inactive), the GI50 [2] is reported as > 81.8 µM (inactive) and the GI50 [3] is reported as > 20.3 µM (inactive). The GI50 [4] was > 41.5 µM (inactive), the GI50 [5] was 0.514 µM (active) and the GI50 [6] was > 68.4 µM (inactive). The GI50 [7] was 24.2 µM (inactive), the GI50 [8] was 25.1 µM (inactive) and the GI50 [9] was 25.4 µM (inactive). The GI50 [10] was > 100 µM (inactive), the GI50 [11] was > 39.1 µM (inactive) and the GI50 [12] was > 89.9 µM (inactive). The GI50 [13] was 14.8 µM (inactive), the GI50 [14] was > 45.9 µM (inactive) and the GI50 [15] was > 100 µM (inactive). The GI50 [16] was > 80.5 µM (inactive), the GI50 [17] was 10.8 µM (inactive) and the GI50 [18] was > 90.4 µM (inactive). The GI50 [19] was > 100 µM (inactive), the GI50 [20] was > 100 µM (inactive) and the GI50 [21] was > 85.5 µM (inactive). For the same molecule, the GI50 [22] was > 49.8 µM (inactive), the GI50 [23] was 45.2 µM (inactive) and the GI50 [24] was 16.7 µM (inactive). For the same molecule, the GI50 [25] was > 100 µM (inactive), the GI50 [26] was > 100 µM (inactive) and the GI50 [27] was > 23 µM (inactive). For the same molecule, the GI50 [28] was > 62.1 µM (inactive), the GI50 [29] was > 93.3 µM (inactive) and the GI50 [30] was > 25.6 µM (inactive). The GI50 [31] was > 68.5 µM (inactive), the GI50 [32] was > 75.3 µM (inactive) and the GI50 [33] was > 100 µM (inactive). The GI50 [34] was 46.3 µM (inactive), the GI50 [35] was > 60.5 µM (inactive) and the GI50 [36] was > 100 µM (inactive). For the same molecule, the GI50 [37] was > 100 µM (inactive), the GI50 [38] was > 100 µM (inactive) and the GI50 [39] was > 52.5 µM (inactive). The GI50 [40] was > 41.7 µM (inactive), the GI50 [41] was 17.1 µM (inactive) and the GI50 [42] was > 100 µM (inactive). The GI50 [43] was > 38.9 µM (inactive), the GI50 [44] was > 100 µM (inactive) and the GI50 [45] was > 45.3 µM (inactive). The GI50 [46] was > 27.9 µM (inactive), the GI50 [47] was greater than 91 µM and the GI50 [48] was 9.95 µM (inactive). The GI50 [49] was > 100 µM (inactive), the GI50 [50] was > 83.4 µM (inactive) and the GI50 [51] was 99.3 µM (inactive). For the same molecule, the GI50 [52] was 31.8 µM (inactive), the GI50 [53] was > 69.8 µM (inactive) and the GI50 [54] was > 45.2 µM (inactive). For the same molecule, the GI50 [55] was > 100 µM (inactive), the GI50 [56] was 98.2 µM (inactive) and the GI50 [57] was 32 µM (inactive).

With `CCOC(=O)CN(c1ccccc1)c1nc(=[N+](C)C)ss1` the GI50 [2] was 0.303 µM (active), the GI50 [5] was 0.678 µM (active) and the GI50 [6] was 32.4 µM (inactive). For the same molecule, the GI50 [7] was 0.318 µM (active), the GI50 [8] was 5.65 µM (inactive) and the GI50 [10] was 23.7 µM (inactive). The GI50 [11] was 0.979 µM (active), the GI50 [13] was 41.1 µM (inactive) and the GI50 [14] was 21.2 µM (inactive). The GI50 [15] was 17.7 µM (inactive), the GI50 [16] was 45.2 µM (inactive) and the GI50 [17] was 1.19 µM (inactive). The GI50 [18] was 2.06 µM (inactive), the GI50 [19] was 50.9 µM (inactive) and the GI50 [20] was 10.5 µM (inactive). For the same molecule, the GI50 [21] was 26.9 µM (inactive), the GI50 [22] was 1.77 µM (inactive) and the GI50 [58] was 53 µM (inactive). For the same molecule, the GI50 [23] was 24.3 µM (inactive), the GI50 [24] was 0.284 µM (active) and the GI50 [25] was 85.1 µM (inactive). The GI50 [26] was 47.4 µM (inactive), the GI50 [27] was 54.7 µM (inactive) and the GI50 [28] was 53.1 µM (inactive). The GI50 [29] was 17.9 µM (inactive), the GI50 [30] was 6.78 µM (inactive) and the GI50 [33] was 35.7 µM (inactive). For the same molecule, the GI50 [34] was 19.8 µM (inactive), the GI50 [35] was 0.24 µM (active) and the GI50 [36] was 20 µM (inactive). For the same molecule, the GI50 [38] was 61.9 µM (inactive), the GI50 [39] was 29 µM (inactive) and the GI50 [41] was 32.4 µM (inactive). For the same molecule, the GI50 [42] was 6.93 µM (inactive), the GI50 [44] was 33 µM (inactive) and the GI50 [45] was 40.1 µM (inactive). For the same molecule, the GI50 [47] was 16.4 µM, the GI50 [48] was 0.309 µM (active) and the GI50 [49] was > 10 µM (inactive). For the same molecule, the GI50 [50] was 42.5 µM (inactive), the GI50 [51] was 23.8 µM (inactive) and the GI50 [52] was 37.9 µM (inactive). For the same molecule, the GI50 [53] was 17.9 µM (inactive), the GI50 [54] was 26.4 µM (inactive) and the GI50 [56] was 30.4 µM (inactive). The GI50 [57] was 13.1 µM (inactive).

For `Cc1cc2c(cn1)C(=O)OCC2`, the GI50 [1] was > 100 µM (inactive), the GI50 [2] was > 100 µM (inactive) and the GI50 [3] was > 100 µM (inactive). For the same molecule, the GI50 [4] was > 100 µM (inactive), the GI50 [5] was > 100 µM (inactive) and the GI50 [6] was > 100 µM (inactive). For the same molecule, the GI50 [8] was > 100 µM (inactive), the GI50 [9] was > 100 µM (inactive) and the GI50 [10] was > 100 µM (inactive). For the same molecule, the GI50 [11] was > 100 µM (inactive), the GI50 [12] was > 100 µM (inactive) and the GI50 [13] was > 100 µM (inactive). For the same molecule, the GI50 [14] was > 100 µM (inactive), the GI50 [15] was > 100 µM (inactive) and the GI50 [16] was > 100 µM (inactive). The GI50 [17] was > 100 µM (inactive), the GI50 [20] was > 100 µM (inactive) and the GI50 [21] was > 100 µM (inactive). The GI50 [22] was > 100 µM (inactive), the GI50 [58] was > 100 µM (inactive) and the GI50 [23] was > 100 µM (inactive). For the same molecule, the GI50 [24] was > 100 µM (inactive), the GI50 [25] was > 100 µM (inactive) and the GI50 [26] was > 100 µM (inactive). For the same molecule, the GI50 [27] was > 100 µM (inactive), the GI50 [28] was > 100 µM (inactive) and the GI50 [29] was > 100 µM (inactive). The GI50 [30] was > 100 µM (inactive), the GI50 [31] was > 100 µM (inactive) and the GI50 [32] was > 100 µM (inactive). The GI50 [33] was > 100 µM (inactive), the GI50 [36] was > 100 µM (inactive) and the GI50 [37] was > 100 µM (inactive). For the same molecule, the GI50 [38] was > 100 µM (inactive), the GI50 [39] was > 100 µM (inactive) and the GI50 [40] was > 100 µM (inactive). For the same molecule, the GI50 [41] was > 100 µM (inactive), the GI50 [42] was > 100 µM (inactive) and the GI50 [44] was > 100 µM (inactive). The GI50 [45] was > 100 µM (inactive), the GI50 [48] was > 100 µM (inactive) and the GI50 [49] was > 100 µM (inactive). For the same molecule, the GI50 [50] was > 100 µM (inactive), the GI50 [51] was > 100 µM (inactive) and the GI50 [52] was > 100 µM (inactive). For the same molecule, the GI50 [53] was > 100 µM (inactive), the GI50 [54] was > 100 µM (inactive) and the GI50 [55] was > 100 µM (inactive). For the same molecule, the GI50 [56] was > 100 µM (inactive) and the GI50 [57] was > 100 µM (inactive).
